Assay results reported in patent US5861424A, “Composition and method for treating cancer” (priority 1995, dated 1999).
Like-named read-outs stand apart in the source and are kept apart here.

Assays:
[1] = test system: human bladder carcinoma EJ cell line; assay: Colony formation assay, human bladder carcinoma EJ; assay type: cell-based; details: for IC50: Homo sapiens, EJ, 24 h, read-out: EJ (IC50); for Selectivity (CV-1 IC50 / EJ IC50): CV-1/EJ
Text: (§1) The control received culture media only.

[2] = test system: normal monkey kidney epithelial cell line CV-1; assay: Colony formation assay, normal monkey kidney epithelial cells CV-1; details: for IC50: Primates, Epithelial cell;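 as to all read-outs here: colonies visualized by crystal violet staining, incubation at 37 °C, IC50 relative to untreated wells given culture medium alone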
[3] = test system: human melanoma LOX cell line; assay: Colony formation assay, human melanoma LOX; assay type: cell-based; details: for IC50: Homo sapiens, LOX, 24 h, read-out: LOX (IC50); for Selectivity (CV-1 IC50 / LOX IC50): CV-1/LOX
Text: as §1

[4] = test system: human colon carcinoma cell line CX-1; assay: Colony formation assay, human colon carcinoma CX-1; assay type: cell-based; details: for IC50: Homo sapiens, Colon carcinoma cell; for IC50 / CX-1 (IC50): 24 h treatment, colony count after 7 to 10 days; for Selectivity (ratio of IC50 for CV-1 and IC50 for CX-1): CV-1/CX-1
Method: Human colon carcinoma cell line CX-1 or normal monkey kidney epithelial cell line CV-1 was chosen as representatives of cancer cells and normal cells, respectively. […] CX-1 cells (2,000 cells/well) and CV-1 cells (1,000 cells/well) were plated in 24-well plastic culture plates. […] The control received culture media only. Cells were treated with compounds of General Formulas (1) to (6) at 37° C. for 24 hours. After rinsing with fresh culture medium three times, the cells were further incubated at 37° C. for 7 to 10 days. Cell colonies were fixed and stained with 2% crystal violet in 70% ethanol for 10 minutes and rinsed in water. […] The selectivity is defined as the ratio of IC50 for CV-1 and IC50 for CX-1.

[5] = test system: human pancreatic carcinoma CRL 1420 cell line; assay: Colony formation assay, human pancreatic carcinoma CRL 1420; assay type: cell-based; details: Table VII; for IC50: Homo sapiens, 24 h; for IC50 / CRL-1420 (IC50): 24 h treatment; for Selectivity (CV-1 IC50 / CRL-1420 IC50): CV-1/CRL-1420
Text: as §1
The Selectivity values, CRL 1420 values and CV-1 values for compounds of the General Formulas (1) to (6) used in the present invention are shown in Table VII below.

[6] = test system: human breast carcinoma MCF-7 cell line; assay: Colony formation assay, human breast carcinoma MCF-7; assay type: cell-based; details: for IC50: Homo sapiens, MCF7, 24 h, read-out: MCF-7 (IC50); for Selectivity (CV-1 IC50 / MCF-7 IC50): CV-1/MCF-7
Text: as §1
The Selectivity values, MCF-7 values and CV-1 values for compounds of the General Formulas (1) to (6) used in the present invention are shown in Table VI below.

[7] = read-out: CV-1 (IC50), Table III, 24 h treatment, colony count after 7 to 10 days
[8] = read-out: CV-1 (IC50), Table IV
[9] = read-out: CV-1 (IC50), Table VII
[10] = read-out: CX-1 (IC50), Table III
[11] = read-out: CV-1 (IC50), Table VI
[12] = Table III, read-out: CX-1 (IC50)

| Structure (SMILES) | IC50 ([1]; Table IV, 24 h treatment) [µg/mL] | Selectivity (CV-1 IC50 / EJ IC50) ([1]; Table IV) | IC50 [2, 7] [µg/mL] | IC50 [2, 8] [µg/mL] | IC50 ([2]; read-out: CV-1 (IC50), Table V) [µg/mL] | IC50 [2, 9] [µg/mL] | IC50 ([3]; Table V, 24 h treatment) [µg/mL] | Selectivity (CV-1 IC50 / LOX IC50) ([3]; Table V) | Selectivity (ratio of IC50 for CV-1 and IC50 for CX-1) ([4]; Table III) | IC50 [5] [µg/mL] | Selectivity (CV-1 IC50 / CRL-1420 IC50) [5] | IC50 [2, 11] [µg/mL] | IC50 [4, 12] [µg/mL] | IC50 ([6]; Table VI, 24 h treatment) [µg/mL] | Selectivity (CV-1 IC50 / MCF-7 IC50) ([6]; Table VI) | other results |
| --- | --- | --- | --- | --- | --- | --- | --- | --- | --- | --- | --- | --- | --- | --- | --- | --- |
| CCN1CCSC1=CC=c1sc(=Cc2sc3ccc(C)cc3[n+]2CC)n(CC)c1=O [Compound 124] | 0.05 | 100 | 5 | 5 | 5 | 5 | 0.04 | 125 | 167 | 0.04 | 125 | – | – | – | – | IC50 [4, 10]: 0.03 µg/mL |
| CCn1c(=Cc2sc3ccccc3[n+]2CC)sc(=CC=C2N(C)c3ccccc3C2(C)C)c1=O [Compound 206] | 0.013 | 462 | 6 | 6 | 6 | 6 | 0.03 | 196 | 600 | 0.03 | 196 | 6 | 0.01 | 0.048 | 125 | – |
| CCN1CCSC1=CC=c1sc(=Cc2sc3ccccc3[n+]2CCOC)n(CC)c1=O [Compound 145] | 0.082 | 122 | – | – | – | – | 0.064 | 156 | 200 | 0.082 | 122 | – | 0.05 | 0.1 | 100 | IC50 ([2]; read-out: CV-1 (IC50)): 10 µg/mL |
| CCN1C(=CC=c2sc(=Cc3sc4c5ccccc5ccc4[n+]3C)n(CC)c2=O)Sc2ccc3ccccc3c21 [Compound 49] | 0.045 | 444 | – | 20 | 20 | 20 | 0.075 | 267 | 667 | 0.075 | 267 | 20 | – | 0.06 | 333 | CX-1 (IC50) ([4]; Table III): 0.03 µg/mL |
| CCN1C(=CC=c2sc(=Cc3sc4c5ccccc5ccc4[n+]3CC)n(CC)c2=O)N(CC(F)(F)C(F)F)c2cc(C(F)(F)F)ccc21 [Compound 230] | 0.05 | 300 | 15 | 15 | 15 | 15 | 0.06 | 200 | 375 | 0.05 | 300 | 15 | 0.05 | – | 167 | IC50 [6]: 0.09 µg/mL |
| CCN1C(=CC=c2sc(=Cc3sc4ccccc4[n+]3CC)n(CC)c2=O)Sc2ccc3ccccc3c21 [Compound 178] | – | – | – | – | – | – | – | – | 200 | – | 154 | – | – | – | 435 | CV-1 (IC50) ([2]; Table III, 24 h treatment, colony count after 7 to 10 days): 2 µg/mL; CV-1 (IC50) ([2]; Table VI): 2 µg/mL; CV-1 (IC50) ([2]; Table VII): 2 µg/mL; CX-1 (IC50) ([4]; Table III): 0.01 µg/mL; MCF-7 (IC50) ([6]; Table VI, 24 h treatment): 0.0046 µg/mL; CRL-1420 (IC50) [5]: 0.013 µg/mL |
| CCN1C(C)=CSC1=CC=c1sc(=Cc2sc3c4ccccc4ccc3[n+]2CC)n(CC)c1=O [Compound 97] | 0.013 | 154 | 2 | 2 | 2 | – | – | 133 | 200 | – | – | – | 0.01 | – | – | IC50 [3]: 0.015 µg/mL |
| CCN1CCSC1=CC=c1sc(=Cc2sc3ccc(Cl)cc3[n+]2CC)n(CC)c1=O [Compound 123] | 0.13 | 154 | 20 | 20 | – | 20 | – | – | 200 | 0.13 | 154 | – | – | – | – | IC50 [4, 10]: 0.1 µg/mL |
| CCN1CCSC1=CC=c1sc(=Cc2sc3ccc(OC)cc3[n+]2CC)n(CC)c1=O [Compound 125] | 0.06 | 133 | – | 8 | 8 | 8 | 0.06 | 133 | 200 | 0.05 | 160 | 8 | 0.04 | 0.06 | 133 | – |
| CCN1C(=CC=c2sc(=Cc3sc4ccccc4[n+]3CC)n(CC)c2=O)Sc2ccc3ccccc3c21 [Compound 37] | 0.03 | 167 | – | 5 | 5 | – | 0.05 | 100 | 250 | – | 167 | – | 0.02 | – | 100 | MCF-7 (IC50) ([6]; Table VI, 24 h treatment): 0.05 µg/mL; CRL-1420 (IC50) [5]: 0.03 µg/mL |
| CCN1C(=CC=c2sc(=Cc3sc4ccc5ccccc5c4[n+]3CC)n(CC)c2=O)N(CC)c2ccccc21 [Compound 234] | – | – | – | – | – | – | 0.03 | 333 | 333 | 0.03 | 333 | – | – | 0.05 | 200 | IC50 ([2]; read-out: CV-1 (IC50)): 10 µg/mL; IC50 [4, 10]: 0.03 µg/mL |
| CCn1c(=Cc2sc3ccc(Cl)cc3[n+]2CC)sc(=CC=C2N(C)c3ccccc3C2(C)C)c1=O [Compound 214] | 0.04 | 200 | – | 8 | 8 | 8 | 0.04 | 200 | 267 | 0.04 | 200 | – | – | – | – | IC50 [4, 10]: 0.03 µg/mL |
| CCN1C=CC=CC1=CC=c1sc(=Cc2sc3ccc4ccccc4c3[n+]2CC)n(CC)c1=O [Compound 278] | – | – | – | – | – | – | 0.035 | 286 | 333 | 0.04 | 250 | – | – | – | 111 | IC50 ([2]; read-out: CV-1 (IC50)): 10 µg/mL; CX-1 (IC50) ([4]; Table III): 0.03 µg/mL; IC50 [6]: 0.09 µg/mL |
| CCn1c(=Cc2sc3ccccc3[n+]2CC)sc(=CC=C2SCCN2C)c1=O [Compound 141] | – | – | 20 | – | 20 | 20 | 0.064 | 312 | 400 | 0.045 | 444 | 20 | 0.05 | 0.184 | 109 | – |
| CCN1C(=CC=c2sc(=Cc3sc4c5ccccc5ccc4[n+]3CC)n(CC)c2=O)N(CC)c2cc(Cl)ccc21 [Compound 235] | – | 500 | > 20 | – | – | – | – | – | > 400 | – | – | – | 0.05 | – | – | IC50 [1]: 0.02 µg/mL; IC50 ([2]; read-out: CV-1 (IC50)): 10 µg/mL |
